Reference: patent US3981983A, “Rapid, radiochemical-ligand binding assay for methotrexate” (priority 1975, dated 1976)

How the values were obtained:
[1] = target: T1, folic acid reductase (binder factor) (Cavia porcellus, UniProt H0VYF1); assay: Direct binding of labeled folates to the binder preparation; set-up: species or system guinea pig; conditions: at the concentration of reactants used in the standard curves
T1 construct: NADPH as cofactor
T1 sequence (H0VYF1 1-187): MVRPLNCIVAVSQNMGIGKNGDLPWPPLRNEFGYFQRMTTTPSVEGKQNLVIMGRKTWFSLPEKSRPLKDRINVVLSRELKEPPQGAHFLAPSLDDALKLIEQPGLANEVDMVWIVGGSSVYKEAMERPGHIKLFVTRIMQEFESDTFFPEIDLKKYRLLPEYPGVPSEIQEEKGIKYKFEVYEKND
Experimental: (§1) The binder factor or folic acid reductase was prepared from guinea pig liver according to the method of Bertino et al, "Dihydrofolate Reductase From Guinea Pig Liver And Small Intestine,"Biochemical Pharmacology 15, pages 563 - 571, 1966 modified as noted below. The livers from freshly killed guinea pigs were rinsed in cold isotonic saline, suspended in 3 volumes (weight/volume) of the same, and homogenized in an Omnimixer (Sorvall, Inc.) for two minutes at 90 volts. The pH of the homogenate was adjusted to 5.1 with 1.0 N HCl. The homogenate was centrifuged at 12,000 × G for 15 minutes, and the pellet was discarded.
Ammonium sulfate was added to the supernatant to 55% of saturation at 4°C and, when necessary, the pH was adjusted to 6.0 with 1.0 N KOH. After standing for 30 minutes at 4°C, the precipitate was collected by centrifugation for 15 minutes at 12,000 × G and discarded. The supernatant was brought to a final ammonium sulfate concentration of 70% of saturation, again keeping the pH at 6.0, and stored overnight at 4°C. The resultant precipitate was recovered by centrifugation, as above, and dissolved in a minimal volume of 0.01 M potassium phosphate buffer, pH 7.0, which was 0.01 M with respect to KCl. […]

[2] = target: T1, folic acid reductase (binder factor); assay: Specificity of the binder: competition with ^3H-MTX in direct competitive and sequential binding assays; set-up: species or system guinea pig; conditions: other folate derivatives up to 200 fold excess relative to ^3H-MTX
Experimental: as §1, with “discarded. […]” for “discarded.”
At the end of the first incubation period, ^3 H-MTX was added and the incubation was continued for an additional 10 minutes. […] After centrifugation for 10 minutes at 2,000 - 3,000 × G to pellet the charcoal, the radioactivity in the clear supernatant was determined by liquid scintillation counting. […]
The specificity of the binder was determined by incubating the following compounds in direct competitive and sequential binding assays with ^3 H-MTX: pteroylmonoglutamate (Folic Acid, Nutritional Biochemicals); 5-methyltetrahydrofolic acid (Sigma Chemical Co.); 5-formyltetrahydrofolicacid (Leucovorin, Lederle Co.); adenosine, guanylic acid, para-aminobenzoylglutamate and 6-carboxypterin (Sigma Chemical Co.); pteroylheptaglutamate and aminopterin.

[3] = target: T1, folic acid reductase (binder factor); assay: Cofactor dependency of ^3H-MTX binding; set-up: species or system guinea pig; conditions: for binding of ^3H-MTX with cofactor substituted for NADPH2: 1,000 times the optimal concentration of NADPH2; for inhibition of the MTX binding reaction: NADPH2 in slight excess, until concentration reached several thousand fold excess to NADPH2
Experimental: as §1
Ammonium sulfate was added to the supernatant to 55% of saturation at 4°C and, when necessary, the pH was adjusted to 6.0 with 1.0 N KOH. After standing for 30 minutes at 4°C, the precipitate was collected by centrifugation for 15 minutes at 12,000 × G and discarded. The supernatant was brought to a final ammonium sulfate concentration of 70% of saturation, again keeping the pH at 6.0, and stored overnight at 4°C. The resultant precipitate was recovered by centrifugation, as above, and dissolved in a minimal volume of 0.01 M potassium phosphate buffer, pH 7.0, which was 0.01 M with respect to KCl. The burgundy colored solution was applied to a Sephadex G-50 column (5 × 100 cm) equilibrated in 0.01 M potassium phosphate, pH 7.0, and 0.2 M KCl; the same buffer was used for elution of the sample.
The eluted material from the column was collected in 5 ml samples, and the binder factor or folic acid reductase eluted from the column behind the excluded volume which was marked by the hemoglobin peak. Sephadex permitted a rapid removal of ammonium sulfate and also gave a partial purification of the binder. Yields of 60% to 80% of the activity present in the crude homogenate were obtained with this methodology.
The maximum binding was identical to the binding observed in the presence of 0.1 μmole NADPH2.

[4] = target: T1, folic acid reductase (binder factor); assay: Reliability, recovery and sensitivity of the radiochemical ligand binding assay for MTX in serum and cerebrospinal fluid; set-up: species or system guinea pig; conditions: presence of ascorbic acid
Experimental: (§2) The samples in Table II were assayed by sequential binding procedures in accordance with the present invention, and they were assayed at multiple dilutions as previously described.

[5] = assay type: physicochemical; conditions: 4°C, buffer A pH 6.0 with albumin
Experimental: The assay reaction is carried out in an aqueous solution of 0.01 M potassium phosphate, 0.15 M potassium chloride, pH 6.0, hereinafter referred to as buffer A. In the assay procedure, buffer A has added thereto about 1 mg of albumin per ml and other additons as noted.
As previously indicated, a binder cofactor comprising reduced nicotinamide adenine dinucleotide phosphate or NADPH2 was added to the reaction solution in the amounts noted below at the time of the assay.

[6] = Endogenous MTX level in serum and CSF of patients who had received MTX; assay type: in vivo; conditions: 6 hours to 6 days after oral, parenteral or intrathecal MTX
Experimental: as §2

Q: Which “binding of labeled folate by the binder preparation” value [1] does the source give for `Nc1nc2ncc(CNc3ccc(C(=O)N[C@@H](CCC(=O)O)C(=O)O)cc3)nc2c(=O)[nH]1` [^3 H-folic acid] here?
A: did not bind

Q: For `Nc1nc(N)c2nc(CNc3ccc(C(=O)N[C@@H](CCC(=O)O)C(=O)O)cc3)cnc2n1` [aminopterin, N-{p-[(2,4-diamino-6-pteridylmethyl)amino]benzoyl}-glutamic acid], which “competition for ^3H-MTX binding sites” value [2] is on record?
A: competed for ^3 H-MTX binding sites

Q: With `NC(=O)c1ccc[n+]([C@@H]2O[C@H](COP(=O)([O-])OP(=O)(O)OC[C@H]3O[C@@H](n4cnc5c(N)ncnc54)[C@H](OP(=O)(O)O)[C@@H]3O)[C@@H](O)[C@H]2O)c1` [NADP, Nicotinamide adenine dinucleotide phosphate] as the compound, how does the “binding of ^3H-MTX with cofactor substituted for NADPH2” value [3] read?
A: did not allow binding of ^3 H-MTX

Q: And the “inhibition of the MTX binding reaction” value [3]?
A: did not inhibit the binding reaction

Q: For `O=C1O[C@H]([C@@H](O)CO)C(O)=C1O` [ascorbic acid], which “effect on the assay” value [4] is on record?
A: did not affect the assay

Q: Which “binding of labeled folate by the binder preparation” value [1] does the source give for `[14CH3]N1c2c([nH]c(N)nc2=O)NCC1CNc1ccc(C(=O)N[C@@H](CCC(=O)O)C(=O)O)cc1` (some centres unmarked) [^14 C-5-methyltetrahydrofolic acid] here?
A: did not bind

Q: Which “maximum binding of MTX obtained with cofactor substituted for NADPH2” value ([3]; concentrations up to 200,000 times the optimal amount of NADPH2) does the source give for `NC(=O)C1=CN([C@@H]2O[C@H](COP(=O)(O)OP(=O)(O)OC[C@H]3O[C@@H](n4cnc5c(N)ncnc54)[C@H](O)[C@@H]3O)[C@@H](O)[C@H]2O)C=CC1` [NADH] here?
A: 40%

Q: Which “stability in buffer A with albumin” value [5] does the source give for `NC(=O)C1=CN([C@@H]2O[C@H](COP(=O)(O)OP(=O)(O)OC[C@H]3O[C@@H](n4cnc5c(N)ncnc54)[C@H](OP(=O)(O)O)[C@@H]3O)[C@@H](O)[C@H]2O)C=CC1` [NADPH2, reduced nicotinamide adenine dinucleotide phosphate] here?
A: stable for several days

Q: For `NC(=O)c1ccc[n+]([C@@H]2O[C@H](COP(=O)([O-])OP(=O)(O)OC[C@H]3O[C@@H](n4cnc5c(N)ncnc54)[C@H](O)[C@@H]3O)[C@@H](O)[C@H]2O)c1` [NAD, nicotinamide adenine dinucleotide], which “binding of ^3H-MTX with cofactor substituted for NADPH2” value [3] is on record?
A: did not allow binding of ^3 H-MTX

Q: What about the “inhibition of the MTX binding reaction” value [3] of the same compound?
A: did not inhibit the binding reaction

Q: With `CN(Cc1cnc2nc(N)nc(N)c2n1)c1ccc(C(=O)N[C@@H](CCC(=O)O)C(=O)O)cc1` [MTX, N-[p-(2,4-diamino-6-pteridylmethyl)methylaminobenzoyl]-glutamic acid] as the compound, how does the “Endogenous MTX, CSF” value [6] read?
A: 8 Nanograms per ml
